Test results published in US20100190710A1, “IL-23 RECEPTOR ANTAGONISTS AND USES THEREOF” (Valorisation HSJ, Societe en Commandite, priority 2007, published 2010).
pEC50: −log10 of the molar value. Entries after “also recorded” stand apart in the source; their conditions may differ. Peptide text beside a SMILES is read from it.

Assays:
IL-23 receptor [1] = biological target: T1, IL-23 receptor (Homo sapiens, UniProt Q5VWK5); assay: IL-23-induced TNFα production in PMA-activated HL-60 monocytes (ELISA); assay type: cell-based; design: endogenous in cells; settings: IL-23 10 ng/ml, ELISA 24 hours after stimulation, read-out: Emax, inhibition of IL-23-induced TNF formation
T1 sequence (Q5VWK5 24-629): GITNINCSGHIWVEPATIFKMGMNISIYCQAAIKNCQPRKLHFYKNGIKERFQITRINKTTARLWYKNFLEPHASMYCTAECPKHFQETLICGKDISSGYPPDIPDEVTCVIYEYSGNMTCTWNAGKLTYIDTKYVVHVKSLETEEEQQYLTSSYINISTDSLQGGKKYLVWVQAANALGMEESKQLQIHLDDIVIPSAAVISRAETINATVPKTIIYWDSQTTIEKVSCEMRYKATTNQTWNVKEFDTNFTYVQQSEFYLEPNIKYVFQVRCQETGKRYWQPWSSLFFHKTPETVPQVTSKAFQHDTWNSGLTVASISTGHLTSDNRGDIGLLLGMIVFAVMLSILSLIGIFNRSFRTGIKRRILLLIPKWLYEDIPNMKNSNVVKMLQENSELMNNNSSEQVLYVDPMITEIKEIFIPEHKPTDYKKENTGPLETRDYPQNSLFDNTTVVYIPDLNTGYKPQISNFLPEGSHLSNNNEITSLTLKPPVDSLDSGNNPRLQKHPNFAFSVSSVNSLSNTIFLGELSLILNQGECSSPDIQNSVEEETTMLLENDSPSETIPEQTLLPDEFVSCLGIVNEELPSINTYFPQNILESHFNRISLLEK
Description: FIGS. 3A and 3B are graphs showing inhibition of IL-23-induced STAT3 phosphorylation and TNFα generation. […] Western Blot analysis was performed on cell lysates, and immunoblot densitometry was measured using ImagePro4+ software. […] TNFα production was quantified by ELISA 24 hours after stimulation with IL-23 using the Quantikine ELISA Kit (R&D systems).
D-peptides 2303, 2305, 2307 and 2309 (1 μM) inhibit IL-23-induced STAT3 phosphorylation in phorbol 12-myristate 13-acetate (PMA)-activated human monocytes (HL-60) (FIG. 2).

[2] = tested on: PMA-induced dermatitis (ear); assay type: in vivo, CD-1 mice
Excerpt: FIGS. 10A and 10B are a series of images and a graph showing efficacy of topical anti-IL-23R peptides in treating PMA-induced dermatitis. PMA-induced dermatitis is often utilized as a model of chronic (and scaling) dermatitis, reminiscent of psoriatic dermatitis. […] FIG. 10B is a graph showing the differences in weight (mg) of ear punches with control ears untreated with PMA. […] FIGS. 11A to 11C are a series of images and graphs showing dose-response to topical administration of peptide 2309 in PMA-induced dermatitis. FIG. 11A is a photographic representation of dose-dependent effects of topical administration of peptide 2309 (mixed in PEG-400) on PMA-induced dermatitis in CD-1 mice. Concentrations of peptide 2309≧100 nM show significant efficacy.

IL-12R = biological target: T2, IL-12R (Homo sapiens, UniProt P42701+Q99665); assay: IL-12-induced STAT4 phosphorylation (selectivity, Western blot); assay type: cell-based; settings: even at high concentrations, i.e., 10 μM
T2 construct: endogenous in cells
Description: FIGS. 8A and 8B are a series of graphs and Western Blots showing the specificity and selectivity of IL-23R binding peptides. […] [^125I]-2305 binding was performed in phosphate buffer saline pH=7.4 on PMA-activated HL-60 cells. [^125I]-labelled and unlabelled peptide 2305 was incubated with cells for 1 hour for equilibration. Cells were then washed four times and bound radioactivity measured using a Cobra II Autogamma gamma counter (Packard). Non-activated HL-60 cells, which express little IL-23R, were used as a negative control (shown on Western Blot of IL-23 receptor). A robust increase in IL-23R expression by PMA was observed on duplicate Western blots. Peptide 2305 is easily labelled with [^125I] on its tyrosine; in absence of tyrosine (e.g., peptide 2309) [^14C]-labelled amino acids can be used. […] IL-12R is very homologous to IL-23R. Western Blots of phosphorylated STAT4 and total STAT4 were performed on cell lysates.

MOG-induced EAE = assay: Experimental Autoimmune Encephalitis (EAE) model; assay type: in vivo, C57/BL6 mice; settings: for clinical signs of EAE: intraperitoneal
[3] = tested on: PMA-induced dermatitis (ear); assay: PMA-induced dermatitis, intraperitoneal injection; assay type: in vivo, CD-1 mice; settings: intraperitoneal injection (0.1-1 mg/kg/day)
Description: FIG. 12 is a series of images and graphs showing the effect of intraperitoneal injection of the 2309 peptide on PMA-induced dermatitis. On day 1, 10 μl of a 0.01% solution of PMA (v/v in acetone) was applied on the external and internal surfaces of the left ear of CD-1 mice (images in left column). Twenty-four hours later, different doses of the 2309 peptide were injected intraperitoneally (0.1 mg/kg/day; 0.5 mg/kg/day; 1 mg/kg/day bid; n=4 for each group treatment). Animals were sacrificed on day 4 (6 hours after the last 2309 injection). The weight (right column, top graph) and thickness (right column, bottom graph) of all ear punches were then determined and the peptide-treated ears with PMA were compared to PMA-only ears.

IL-23 receptor [4] = biological target: T1, IL-23 receptor; assay: IL-23-induced STAT3 phosphorylation in PMA-activated HL-60 monocytes (Western blot); assay type: cell-based; design: endogenous in cells; settings: PMA-activated HL-60 human monocytes; peptide 1 μM, 30 min pre-incubation; IL-23 10 ng/ml, 15 min
Description: FIG. 2 is a graph showing the results of efficacy screening of peptides designed from the IL-23 receptor. HL-60 human monocytes were pre-incubated for 30 minutes with the particular peptides (1 μM) and stimulated for 15 minutes with IL-23 (10 ng/ml). Western Blot analysis of phosphorylated-STAT3 and total STAT3 was performed on cell lysates. Immunoblot densitometry was measured using ImagePro4+ software. […] FIGS. 3A and 3B are graphs showing inhibition of IL-23-induced STAT3 phosphorylation and TNFα generation. […] Western Blot analysis was performed on cell lysates, and immunoblot densitometry was measured using ImagePro4+ software. […] TNFα production was quantified by ELISA 24 hours after stimulation with IL-23 using the Quantikine ELISA Kit (R&D systems). […] D-peptides 2303, 2305, 2307 and 2309 (1 μM) inhibit IL-23-induced STAT3 phosphorylation in phorbol 12-myristate 13-acetate (PMA)-activated human monocytes (HL-60) (FIG. 2).

[5] = three times a day (3 mg/kg/day), Sudan black stain, listed as APG-2309

T2 sequence (Q99665 24-862, other chains not shown): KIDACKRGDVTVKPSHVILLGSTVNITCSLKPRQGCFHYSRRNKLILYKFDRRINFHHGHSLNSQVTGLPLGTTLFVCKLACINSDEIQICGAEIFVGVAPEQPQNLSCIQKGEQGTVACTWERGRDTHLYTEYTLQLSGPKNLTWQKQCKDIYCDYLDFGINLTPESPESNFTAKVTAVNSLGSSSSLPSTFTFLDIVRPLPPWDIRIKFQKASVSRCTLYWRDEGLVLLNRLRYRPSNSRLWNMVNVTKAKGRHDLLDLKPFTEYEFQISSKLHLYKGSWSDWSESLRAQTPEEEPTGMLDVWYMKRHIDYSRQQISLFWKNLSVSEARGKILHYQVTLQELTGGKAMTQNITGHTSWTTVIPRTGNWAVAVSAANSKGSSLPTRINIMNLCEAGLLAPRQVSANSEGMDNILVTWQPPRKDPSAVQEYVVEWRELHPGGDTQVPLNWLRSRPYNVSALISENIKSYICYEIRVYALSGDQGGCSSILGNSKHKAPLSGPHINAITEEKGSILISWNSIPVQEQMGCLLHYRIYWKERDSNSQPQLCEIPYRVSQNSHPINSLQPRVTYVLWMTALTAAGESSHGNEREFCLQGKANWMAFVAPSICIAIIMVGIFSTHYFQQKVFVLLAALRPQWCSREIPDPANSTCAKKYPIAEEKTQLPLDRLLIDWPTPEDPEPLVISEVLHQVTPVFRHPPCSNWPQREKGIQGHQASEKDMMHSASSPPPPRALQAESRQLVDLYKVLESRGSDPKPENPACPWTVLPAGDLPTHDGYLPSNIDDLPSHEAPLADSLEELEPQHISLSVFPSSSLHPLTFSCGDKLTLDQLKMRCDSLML

Emax (IL-23 receptor [1]): ~80%
pEC50 ([2]; mouse, in vivo): ~7.30
transdermal penetration ([2]; mouse, in vivo): effective transdermal penetration
SMILES: CSCC[C@@H](N)C(=O)N[C@H](CCC(=O)O)C(=O)N[C@H](CCC(=O)O)C(=O)N[C@H](CO)C(=O)N[C@H](CCCCN)C(=O)N[C@H](CCC(N)=O)C(=O)N[C@H](CC(C)C)C(=O)N[C@H](CCC(N)=O)C(=O)N[C@H](CC(C)C)C(=O)O [Peptide 2309, MEESKQLQL] (HELM PEPTIDE1{[dM].[dE].[dE].[dS].[dK].[dQ].[dL].[dQ].[dL]}$$$$V2.0; N-terminus and C-terminus assumed)
PMA-induced edema (weight of ear punches) ([2]; topical dose-response (FIG. 11B)): dose-dependent reduction in PMA-induced edema
capillary leak (Evan's blue technique) ([2]; topical dose-response (FIG. 11C)): diminished capillary leak
concentrations showing significant efficacy ([2]; topical in PEG-400 (FIG. 11A)): ≥ 100 nM
effect on IL-12-induced STAT4 phosphorylation (IL-12R): does not inhibit; also recorded: inability
EAE-induced demyelination of the cerebellum (MOG-induced EAE; [5]): protects against EAE-induced demyelination of the cerebellum; also recorded: totally prevents
EAE-induced demyelination of the spinal cord (MOG-induced EAE; [5]): protects against EAE-induced demyelination of the spinal cord; also recorded: totally prevents
clinical signs of EAE (MOG-induced EAE; treatment three times a day): completely abolished the induction of the disease symptoms
clinical signs of EAE (MOG-induced EAE; twice a day at 2 mg/kg/day): retarded the appearance of the clinical signs of EAE
redness and ear weight [3]: able to treat PMA-induced dermatitis as evidenced by a decrease in redness and ear weight
effect on IL-23-induced STAT3 phosphorylation (IL-23 receptor [4]): demonstrable efficacy; also recorded: inhibit; also recorded: remained capable of inhibiting
